The values below come from patent publication US4918064A, “Phenyl glycines for use in reducing neurotoxic injury” (G. D. Searle & Co., priority 1987, dated 1990).

One may read the Ki as a dissociation constant, usually derived from enzyme kinetics or from competition with a known ligand.

The target of data set [1] is NMDA receptor. The experiment in a line: NMDA-specific L-[3H]glutamate receptor binding assay, synaptic plasma membranes. To be noted: L-[3H]glutamate 12.5 nM, Triton X-100 treated SPM, 0-4° C., 10 min. How it is done: (§1) Synaptic plasma membranes (SPM) were prepared as previously described [Monahan, J. B. and Michel, J., "Identification and Characterization of an N-methyl-D-aspartate-specific L[^3 H]glutamate Recognition Site in Synaptic Plasma Membranes, J. Neurochem., 48, 1699-1708 (1987)]. The SPM were stored at a concentration of 10-15 mg/ml in 0.32M sucrose, 0.5 mM EDTA, 1 mM MgSO4, 5 mM Tris/SO4, pH 7.4, under liquid nitrogen. The identity and purity of the subcellular fractions were confirmed by both electron microscopy and marker enzymes. Protein concentrations were determined by using a modification of the method of Lowry [Ohnishi, S. T. and Barr, J. K., "A Simplified Method of Quantitating Proteins Using the Biuret and Phenol Reagents", Anal. Biochem., 86, 193-197 (1978)].
Prior to use in the NMDA-specific L-[^3 H]glutamate binding assay the SPM were thawed, diluted twenty fold with 50 mM Tris/acetate, pH 7.4 containing 0.04% (v/v) Triton X-100, incubated for 30 minutes at 37° C. and centrifuged as described above. The Triton X-100 treated membranes were washed with 50 mM Tris/acetate, pH 7.4 and centrifuged at 100,000 g for 15 minutes a total of four times.
(§2) The basic procedure for the receptor subclass binding assays was similar. This general method involved adding the radioligand (12.5 nM L-[^3 H]glutamate; 0.5 nM [^3 H]kainate or 10 nM [^3 H]AMPA) to the appropriate concentration of the test compound and initiating the assay by the addition of ice cold synaptic plasma membranes (0.2-0.45 mg). The binding assays were performed in 1.5 mL centrifuge tubes with the total volume adjusted to 1.0 mL. .Additions of test compounds were made in 50 mM Tris/acetate, pH 7.4 and incubations were carried out at 0°-4° C. The incubation time for the NMDA and the AMPA binding assays was 10 minutes, for the kainate binding assay 60 minutes and for the sodium-dependent glutamate binding assay 15 minutes. The AMPA binding assay contained 100 mM KSCN and the sodium-dependent glutamate binding assay contained 150 mM sodium acetate in addition to the previously described reagents.
(§3) To terminate the incubation, the samples were centrifuged for 15 minutes at 12,000 g and 4° C. in a Beckman Microfuge 12. The supernatant was aspirated and the pelleted membranes dissolved in Beckman BTS-450 tissue solubilizer for a minimum of 6 hours at room temperature. Beckman MP scintillation cocktail containing 7 mL/1 acetic acid was then added and the samples counted on a Beckman LS 5800 or 3801 liquid scintillation counter with automatic corrections for quenching and counting efficiency.
(§4) Nonspecific binding was defined as the residual binding in the presence of either excess L-glutamate (0.1-0.4 mM), kainate (0.01 mM), or NMDA (0.5 mM), and was 15-25% of the total binding in the NMDA binding assay, 19-27% in the AMPA binding assay, 20-30% in the kainate binding assay and 10-15% in the sodium-dependent binding assay. Radioligand binding to the synaptic plasma membranes was analyzed using Scatchard and Hill transformations and the Ki values of the compounds determined using logit-log transformations. Calculations and regression analysis were performed using templates developed for Lotus 1, 2, 3 as previously described [Pullan, L. M. "Automated Radioligand Receptor Binding Analysis with Templates for Lotus", Computer Appln. Biosci., 3 131 (1987)]. Binding results are reported in Table II for example compounds of the invention. […]

Data set [2] concerns the target KA (kainate) receptor. The experiment in a line: [3H]kainate receptor binding assay, synaptic plasma membranes. The settings on record: [3H]kainate 0.5 nM, 0-4° C., 60 min. As for the experimental part:
as §1
(§5) The SPM were treated identically for the [^3 H]AMPA (QUIS), [^3 H]kainate and sodium-dependent L-[^3 H]-glumatate binding assays. The SPM were thawed at room temperature, diluted twenty-fold with 50 mM Tris/acetate, pH 7.4, incubated at 37° C. for 30 minutes, and centrifuged at 100,000 g for 15 minutes. The dilution, incubation, and centrifugation was repeated a total of three times.
as §2, §3, §4

For data set [3], the target named is Quis (quisqualate) receptor. The experiment in a line: [3H]AMPA (QUIS) receptor binding assay, synaptic plasma membranes. To be noted: [3H]AMPA 10 nM, 100 mM KSCN, 0-4° C., 10 min. As for the experimental part:
as §1, §5, §2, §3, §4

Data set [4] relates to CD-1 mouse. The experiment in a line: In Vivo 3-MPA-Induced Convulsions (tonic hindlimb extension). How it is done: In the CD-1 mouse, i.p. injection of 3-MPA produces clonic seizures, tonic hindlimb extension and death. Seizures begin within 2-3 minutes after injection. The dose-response for induction of tonus by 3-MPA is unusual. The incidence of tonus increases rapidly from 35 to 50 mg/kg and remains constant at a less than maximal level over a broad dose range. 3-MPA doses from 50 to 150 mg/kg produce tonus in approximately 75% of the treated mice. The incidence of death over this dose range is variable and less than maximal.
In order to test for antagonism of 3-MPA-induced tonus, the lowest dose of 3-MPA that produced tonus consistently in 75% of the animals (50 mg/kg i.p.) was chosen. Test compounds were administered subcutaneously 30-40 minutes prior to i.p. administration of 3-MPA. Immediately after 3-MPA administration, each mouse was placed in a small cage made of steel rods. The mice were then observed for the presence or absence of tonic hindlimb extension. Reduction (from 75%) in the incidence of tonic hindlimb extension was considered protection from 3-MPA-induced convulsions. The dose of the test compound varied using groups of ten mice per dose until dose response curves are constructed, and ED50 's are calculated.

Data set [5] concerns chick embryo retina. To be noted: agonist alone, pilot experiments, 30 min; cited from earlier work.

Consider `NC(CCCCCP(=O)(O)O)C(=O)O` (racemic) [D,L-AP7, D,L-2-amino-7-phosphonoheptanoic acid, reference compound], for which the figures for the Ki in data set [1] and in data set [3] were 5.4 µM and above 300 µM, respectively. The “Receptor binding, KA (Ki)” value in data set [2] is above 300 µM.
Turning to `N[C@H](CCCCCP(=O)(O)O)C(=O)O` [D-AP7, reference compound], the Ki in data set [1] is 4 µM; in data set [3] it was above 300 µM. Moreover, the “Receptor binding, KA (Ki)” value in data set [2] is above 300 µM.
As for `O=C(O)CCS` [Example 3-MPA], the “mice with tonus produced by 3-MPA” value in data set [4] (3-MPA 50 to 150 mg/kg i.p.) was “approximately 75%”. Besides, the “time after injection at which seizures begin” value in data set [4] (3-MPA i.p.) lay within 2 to 3 min. For the same compound, the “lowest dose of 3-MPA that produced tonus consistently in 75% of the animals” value in data set [4] (i.p.) is 50 mg/kg.
Consider `C=C(C)[C@H]1CN[C@H](C(=O)O)[C@H]1CC(=O)O` [KA, Kainate], for which the “lowest concentration required to consistently obtain fully developed retinal lesions” value in data set [5] was 25 µM.
As to `CCOP(=O)(O)Cc1ccc(C(N)C(=O)O)cc1` (stereo not shown) [VII, 4-(Ethylphosphonomethyl)phenylglycine], the Ki in data set [1] is 70 µM; in data set [3] it was above 300 µM. Also, the “Receptor binding, KA (Ki)” value in data set [2] was above 300 µM.
`Cc1cc(C(N)C(=O)O)c(C)cc1CP(=O)(O)O.Cl` (stereo not shown) [X, 2,5-dimethyl-4-(phosphonomethyl)phenylglycine hydrochloride]: the Ki in data set [1] is 21.3 µM; in data set [3], above 300 µM. Further, in data set [2], the “Receptor binding, KA (Ki)” value was above 300 µM.
